The results in this text go back to patent publication US20090203753A1, “7-(2-amino-1-hydroxy-ethyl)-4-hydroxybenzothiazol-2(3H)-one-derivatives as beta2 adrenoreceptor agonists” (AstraZeneca AB, priority 2005, published 2009).

Experiment [1] deals with T1, β2 receptor (Homo sapiens, UniProt P07550).
T1 construct: endogenous in cells; host or cells: H292 cells
The experiment in a line: β2 mediated cAMP production in H292 cells, AlphaScreen cAMP detection (10 minutes with test compound). The experiment is classed as cell-based. The note with it: for EC50: cAMP, 10 minutes incubation with compound, 300 μM rolipram; for Intrinsic Activity: fraction relative to the maximum activity determined for formoterol, 10 minutes incubation. As for the experimental part: H292 cells were grown in RPMI (Roswell Park Memorial Institute) medium containing, 10% (v/v) FBS (foetal bovine serum) and 2 mM L-glutamine. Cells were grown in 225 cm2 flasks containing 25 mL media in a humidified incubator at 37° C., 5% CO2. Cells were harvested from the flask and passaged at a 1 in 10 dilution once per week.
The media from flasks containing H292 cells was removed, rinsed with 10 mL PBS (phosphate buffered saline) and replaced with 10 mL Accutase™ cell detachment solution. Flasks were incubated for 15 minutes in a humidified incubator at 37° C., 5% CO2. The cell suspension was counted and the cells re-suspended in RPMI media (containing 10% (v/v) FBS and 2 mM L-glutamine) at 0.05×10^6 cells per mL. 5000 cells in 100 μL were added to each well of a tissue-culture-treated 96-well plate and the cells incubated overnight in a humidified incubator at 37° C., 5% CO2. The culture media was removed, washed twice with 100 μL assay buffer and replaced with 50 μL assay buffer. Cells were rested at room temperature for 20 minutes after which time 25 μL of rolipram (1.2 mM made up in assay buffer containing 2.4% (v/v) dimethylsulphoxide) was added. Cells were incubated with rolipram for 10 minutes after which time test compounds (made up as ×4 concentrated stocks in assay buffer containing 4% (v/v) dimethylsulphoxide) were added and the cells were incubated for 10 minutes at room temperature. Final rolipram concentration in the assay was 300 μM and final vehicle concentration was 1.6% (v/v) dimethylsulphoxide. The reaction was stopped by removing supernatants, washing once with 100 μL assay buffer and replacing with 50 μL lysis buffer. The cell monolayer was frozen at −80° C. for 30 minutes (or overnight).
(§1) The concentration of cAMP (cyclic adenosine monophosphate) in the cell lysate was determined using the AlphaScreen™ methodology. The frozen cell plate was thawed for 20 minutes on a plate shaker then 10 μL of the cell lysate was transferred to a 96-well white plate. 40 μL of mixed AlphaScreen™ detection beads (containing equal volumes of donor beads (pre-incubated with biotinylated cAMP in the dark for 30 minutes) and acceptor beads), was added to each well and the plate incubated at room temperature for 10 hours in the dark. The AlphaScreen™ signal was measured using an EnVision spectrophotometer (Perkin-Elmer Inc.) with the recommended manufacturer's settings. cAMP concentrations were determined by reference to a calibration curve determined in the same experiment using standard cAMP concentrations (made up in lysis buffer in a 96-well tissue-culture-treated plate and frozen/thawed alongside the test samples) and detected using the same protocol. Concentration response curves for agonists were constructed to determine both the pEC50 and Intrinsic Activity.

For experiment [2], the target named is T2, recombinant human adrenergic beta 1 receptors (Homo sapiens, UniProt P08588).
T2 construct: purchased Euroscreen
The experiment in a line: Adrenergic β1 selectivity assay, [125I]-Iodocyanopindolol binding to membranes. The note with it: inhibition of [125I]-Iodocyanopindolol binding (0.036 nM); read-out: β1 bind pIC50 (converted). As for the experimental part: Membranes containing recombinant human adrenergic beta 1 receptors were obtained from Euroscreen. These were diluted in Assay Buffer (50 mM HEPES, 1 mM EDTA, 120 mM NaCl, 0.1% gelatin, pH 7.4) to provide a final concentration of membranes that gave a clear window between maximum and minimum specific binding.
(§2) Assays were performed in U-bottomed 96-well polypropylene plates. 10 μL [^125I]-Iodocyanopindolol (0.036 nM final concentration) and 10 μL of test compound (10× final concentration) were added to each test well. For each assay plate 8 replicates were obtained for [^125I]-Iodocyanopindolol binding in the presence of 10 μL vehicle (10% (v/v) DMSO in Assay Buffer; defining maximum binding) or 10 μL Propranolol (10 μM final concentration; defining non-specific binding (NSB)). Membranes were then added to achieve a final volume of 100 μL. The plates were incubated for 2 hours at room temperature and then filtered onto PEI coated GF/B filter plates, pre-soaked for 1 hour in Assay Buffer, using a 96-well plate Tomtec cell harvester. Five washes with 250 μL wash buffer (50 mM HEPES, 1 mM EDTA, 120 mM NaCl, pH 7.4) were performed at 4° C. to remove unbound radioactivity. The plates were dried then sealed from underneath using Packard plate sealers and MicroScint-O (50 μL) was added to each well. The plates were sealed (TopSeal A) and filter-bound radioactivity was measured with a scintillation counter (TopCount, Packard BioScience) using a 3-minute counting protocol.
(§3) Total specific binding (B0) was determined by subtracting the mean NSB from the mean maximum binding. NSB values were also subtracted from values from all other wells.

Experiment [3] addresses T3, recombinant human α1D receptor (Homo sapiens, UniProt P25100).
T3 construct: expressed in transfected cells; host or cells: HEK293
T3 sequence (P25100 1-572): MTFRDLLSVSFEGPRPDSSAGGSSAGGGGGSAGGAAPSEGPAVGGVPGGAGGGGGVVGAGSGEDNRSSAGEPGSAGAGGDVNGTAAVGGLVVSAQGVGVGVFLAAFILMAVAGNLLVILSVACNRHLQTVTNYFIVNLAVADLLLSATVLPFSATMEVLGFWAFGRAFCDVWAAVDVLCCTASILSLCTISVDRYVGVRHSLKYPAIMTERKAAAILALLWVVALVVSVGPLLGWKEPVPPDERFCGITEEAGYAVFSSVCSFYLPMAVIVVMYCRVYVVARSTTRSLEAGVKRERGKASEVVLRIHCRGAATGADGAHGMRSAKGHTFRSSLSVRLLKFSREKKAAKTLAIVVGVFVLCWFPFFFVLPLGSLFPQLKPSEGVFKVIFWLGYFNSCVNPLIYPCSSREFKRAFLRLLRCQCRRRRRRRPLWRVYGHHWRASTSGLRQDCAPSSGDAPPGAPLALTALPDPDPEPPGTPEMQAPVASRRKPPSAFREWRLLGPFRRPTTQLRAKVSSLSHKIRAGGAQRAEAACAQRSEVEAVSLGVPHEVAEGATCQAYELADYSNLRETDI
The experiment in a line: Adrenergic α1D selectivity assay, [3H]-prazosin binding to HEK293 membranes. The note with it: read-out: α1 bind pIC50 (converted). As for the experimental part:
Membranes were prepared from human embryonic kidney 293 (HEK293) cells expressing recombinant human α1D receptor. These were diluted in Assay Buffer (50 mM HEPES, 1 mM EDTA, 0.1% gelatin, pH 7.4) to provide a final concentration of membranes that gave a clear window between maximum and minimum specific binding.
as §2, with “[^3H]-prazosin (0.3” for “[^125I]-Iodocyanopindolol (0.036”, “[^3H]-prazosin” for “[^125I]-Iodocyanopindolol”, “BMY7378” for “Propranolol”, “EDTA,” for “EDTA, 120 mM NaCl,”
as §3

In experiment [4] the target is T4, recombinant human Dopamine Subtype D2s receptors (Homo sapiens, UniProt P14416).
T4 construct: purchased Perkin Elmer
The experiment in a line: Dopamine D2 selectivity assay, [3H]-spiperone binding to membranes. Conditions: read-out: D2 bind pIC50 (converted). How it is done: Membranes containing recombinant human Dopamine Subtype D2s receptors were obtained from Perkin Elmer. These were diluted in Assay Buffer (50 mM HEPES, […], 120 mM NaCl, 0.1% gelatin, pH 7.4) to provide a final concentration of membranes that gave a clear window between maximum and minimum specific binding.
Assays were performed in U-bottomed 96-well polypropylene plates. 30 μL [^3H]-spiperone (0.16 nM final concentration) and 30 μL of test compound (10× final concentration) were added to each test well. For each assay plate 8 replicates were obtained for [^3H]-spiperone binding in the presence of 30 μL vehicle (10% (v/v) DMSO in Assay Buffer; defining maximum binding) or 30 μL Haloperidol (10 μM final concentration; defining non-specific binding (NSB)). Membranes were then added to achieve a final volume of 300 μL. The plates were incubated for 2 hours at room temperature and then filtered onto PEI coated GF/B filter plates, pre-soaked for 1 hour in Assay Buffer, using a 96-well plate Tomtec cell harvester. Five washes with 250 μL wash buffer (50 mM HEPES, 1 mM EDTA, 120 mM NaCl, pH 7.4) were performed at 4° C. to remove unbound radioactivity. The plates were dried then sealed from underneath using Packard plate sealers and MicroScint-O (50 μL) was added to each well. The plates were sealed (TopSeal A) and filter-bound radioactivity was measured with a scintillation counter (TopCount, Packard BioScience) using a 3-minute counting protocol.
as §3

Experiment [5] has as its target T1, β2 receptor. The experiment in a line: Alternative adrenergic β2 mediated cAMP production in H292 cells (60 minutes with test compound). Format: cell-based. The note with it: for EC50: cAMP, 60 minutes incubation with compound, 300 μM rolipram, read-out: β2 pEC50 (converted); for β2 Int Act: fraction relative to the maximum activity determined for formoterol, 60 minutes incubation. As for the experimental part:
Alternative Adrenergic (β2 Mediated cAMP Production
H292 cells were grown in 225 cm2 flasks incubator at 37° C., 5% CO2 in RPMI medium containing, 10% (v/v) FBS (foetal bovine serum) and 2 mM L-glutamine.
Adherent H292 cells were removed from tissue culture flasks by treatment with Accutase™ cell detachment solution for 15 minutes. Flasks were incubated for 15 minutes in a humidified incubator at 37° C., 5% CO2. Detached cells were re-suspended in RPMI media (containing 10% (v/v) FBS and 2 mM L-glutamine) at 0.05×10^6 cells per mL. 5000 cells in 100 μL were added to each well of a tissue-culture-treated 96-well plate and the cells incubated overnight in a humidified incubator at 37° C., 5% CO2. The culture media was removed and cells were washed twice with 100 μL assay buffer and replaced with 50 μL assay buffer (HBSS solution containing 10 mM HEPES pH7.4 and 5 mM glucose). Cells were rested at room temperature for 20 minutes after which time 25 μL of rolipram (1.2 mM made up in assay buffer containing 2.4% (v/v) dimethylsulphoxide) was added. Cells were incubated with rolipram for 10 minutes after which time test compounds were added and the cells were incubated for 60 minutes at room temperature. The final rolipram concentration in the assay was 300 μM and final vehicle concentration was 1.6% (v/v) dimethylsulphoxide. The reaction was stopped by removing supernatants, washing once with 100 μL assay buffer and replacing with 50 μL lysis buffer. The cell monolayer was frozen at −80° C. for 30 minutes (or overnight).
as §1, with “using” for “using the”, “pre-incubated” for “(containing equal volumes of donor beads (pre-incubated”, “cAMP,” for “cAMP in the dark for 30 minutes) and acceptor beads),”, “concentrations.” for “concentrations (made up in lysis buffer in a 96-well tissue-culture-treated plate and frozen/thawed alongside the test samples) and detected using the same protocol.”, “constructed and data was fitted to a four parameter logistic equation” for “constructed”, “Activity. […]” for “Activity.”
In general terms: Changes in cAMP serve as a functional read-out for many G protein-coupled receptors.

Structures can show the parent of a compound that is named as a salt.

T2 sequence (P08588 whole entry): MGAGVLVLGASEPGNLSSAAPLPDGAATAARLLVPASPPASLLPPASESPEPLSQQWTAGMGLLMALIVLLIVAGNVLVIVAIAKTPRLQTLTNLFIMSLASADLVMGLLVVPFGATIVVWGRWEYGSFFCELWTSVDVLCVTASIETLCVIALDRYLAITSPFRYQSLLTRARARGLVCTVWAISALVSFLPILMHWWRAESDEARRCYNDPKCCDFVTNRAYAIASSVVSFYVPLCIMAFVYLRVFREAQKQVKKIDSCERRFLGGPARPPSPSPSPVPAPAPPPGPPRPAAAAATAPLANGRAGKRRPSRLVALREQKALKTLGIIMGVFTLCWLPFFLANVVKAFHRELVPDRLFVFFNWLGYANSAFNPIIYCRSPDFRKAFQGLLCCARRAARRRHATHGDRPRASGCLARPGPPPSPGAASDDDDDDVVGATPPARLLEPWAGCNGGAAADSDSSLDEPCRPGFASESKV
T1 sequence (P07550 whole entry): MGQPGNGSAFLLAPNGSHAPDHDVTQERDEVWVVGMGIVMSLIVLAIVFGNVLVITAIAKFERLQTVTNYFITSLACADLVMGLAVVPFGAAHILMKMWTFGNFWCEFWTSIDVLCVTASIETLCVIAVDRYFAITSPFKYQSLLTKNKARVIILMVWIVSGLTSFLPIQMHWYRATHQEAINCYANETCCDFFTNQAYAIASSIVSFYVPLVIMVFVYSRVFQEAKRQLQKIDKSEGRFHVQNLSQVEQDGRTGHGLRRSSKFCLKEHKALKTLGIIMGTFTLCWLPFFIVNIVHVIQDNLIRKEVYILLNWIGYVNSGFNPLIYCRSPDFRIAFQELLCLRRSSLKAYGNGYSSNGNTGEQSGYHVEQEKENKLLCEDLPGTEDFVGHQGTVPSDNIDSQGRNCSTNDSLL
T4 sequence (P14416 1-414 isoform P14416-2): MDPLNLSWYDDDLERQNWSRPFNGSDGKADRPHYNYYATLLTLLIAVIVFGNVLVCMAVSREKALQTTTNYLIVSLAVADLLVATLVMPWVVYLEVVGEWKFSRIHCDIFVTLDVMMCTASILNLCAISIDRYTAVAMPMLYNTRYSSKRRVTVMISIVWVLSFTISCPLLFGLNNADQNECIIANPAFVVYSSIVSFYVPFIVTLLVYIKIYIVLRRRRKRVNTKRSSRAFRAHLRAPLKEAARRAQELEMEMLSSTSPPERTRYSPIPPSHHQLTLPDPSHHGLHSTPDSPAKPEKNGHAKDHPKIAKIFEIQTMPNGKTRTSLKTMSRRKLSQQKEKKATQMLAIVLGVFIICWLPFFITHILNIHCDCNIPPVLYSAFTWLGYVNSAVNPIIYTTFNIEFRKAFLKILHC

Turning to `CCCCN(CCNC[C@H](O)c1ccc(OCc2ccccc2)c2[nH]c(=O)sc12)C(=O)CCOCCc1ccccc1` [Example 1, N-[2-[2-(4-Benzyloxy-2-oxo-3H-benzothiazol-7-yl)-(2R)-2-hydroxy-ethyl]aminoethyl]-N-butyl-3-phenethyloxy-propanamide], in experiment [1], the EC50 was 20 nM and the “Intrinsic Activity” value worked out at 0.7.
As to `CCN(CC)CCN(CCNC[C@H](O)c1ccc(O)c2[nH]c(=O)sc12)C(=O)CCOCCc1cccc2ccccc12` [Example 6, N-[2-(Diethylamino)ethyl]-N-(2-{[(2R)-2-hydroxy-2-(4-hydroxy-2-oxo-2,3-dihydro-1,3-benzothiazol-7-yl)ethyl]amino}ethyl)-3-[2-(1-naphthyl)ethoxy]propanamide], the IC50 in experiment [2] is 631 nM; in experiment [3], 2510 nM; in experiment [4], 2510 nM. For the same compound, the EC50 in experiment [5] is 2 nM. Moreover, the “β2 Int Act” value in experiment [5] is reported as 0.9.
Consider `O=C(CCOCCc1ccccc1)N(CCNC[C@H](O)c1ccc(O)c2[nH]c(=O)sc12)CCc1ccccc1` [Example 4, N-(2-{[(2R)-2-Hydroxy-2-(4-hydroxy-2-oxo-2,3-dihydro-1,3-benzothiazol-7-yl)ethyl]amino}ethyl)-3-(2-phenylethoxy)-N-(2-phenylethyl)propanamide], for which the IC50 in experiment [2] is 3.16 nM. In experiment [1], the EC50 was 1.26 nM and the “Intrinsic Activity” value is reported as 1.1. For the same compound, in experiment [5], the EC50 was 1.26 nM and the “β2 Int Act” value turned out to be 0.9.
In the case of `CN(CCNC[C@H](O)c1ccc(O)c2[nH]c(=O)sc12)C(=O)CCOCCc1ccccc1` [Example 5, N-(2-{[(2R)-2-Hydroxy-2-(4-hydroxy-2-oxo-2,3-dihydro-1,3-benzothiazol-7-yl)ethyl]amino}ethyl)-N-methyl-3-(2-phenylethoxy)propanamide Trifluoroacetate], the IC50 in experiment [2] is 12.6 nM. In experiment [1], the EC50 was 0.316 nM and the “Intrinsic Activity” value is listed as 1.0. Also, in experiment [5], the EC50 is 0.2 nM and the “β2 Int Act” value turned out to be 1.
